Source: patent publication US9815835B2, “Substituted polycyclic carbamolypyridone derivative” (priority 2009, dated 2017)

Legend:
influenza virus = assay: microbe, parasite or virus in culture; assay type: cell-based, influenza virus (MDBK or MDCK cells); settings: unidentified influenza virus, 72 h, read-out: CPE EC50, effective concentration to achieve 50% CPE inhibition, 3 days incubation, WST-8
[1] = molecular target: cap-dependent endonuclease (RNP fraction containing PB1•PB2•PA complex) (Influenza A virus, UniProt P15659); assay: biochemical; settings: RNP from A/WSN/33 virus, capped Cy3/BHQ2 30mer RNA substrate, 60 minutes at room temperature; read-out: CEN IC50

| SMILES | EC50 (influenza virus) [µM] | IC50 [1] [µM] |
| --- | --- | --- |
| O=C1c2c(O)c(=O)ccn2N(C2c3ccccc3CCc3ccccc32)CN1CCCF [Example 257] | 0.055 | 0.041 |
| O=C1c2c(O)c(=O)ccn2N(C2c3ccccc3CSc3ccccc32)CN1C(CO)CO (stereo not shown) [Example 366] | 0.838 | 0.09 |
| O=C1c2c(O)c(=O)ccn2[C@@H](C(c2ccccc2)c2ccccc2)CN1Cc1ccccc1 [Example 37] | 0.318 | 0.101 |
| Cc1ccc2c(c1)C(N1CN(C(C)C)C(=O)c3c(O)c(=O)ccn31)c1ccccc1CS2 (stereo not shown) [Example 357] | 0.386 | 0.138 |
| COCCC1N(C(C)C)C(=O)c2c(O)c(=O)ccn2N1C1c2ccccc2CCc2ccccc21 (stereo not shown) [Example 511] | 0.015 | 0.175 |
| COCCN1CN(C2c3cc(F)ccc3COc3ccccc32)n2ccc(=O)c(O)c2C1=O (stereo not shown) [Example 404] | 0.063 | 0.084 |
| CC(C)N1CN(C2c3cccc(F)c3CCc3c(F)cccc32)n2ccc(=O)c(O)c2C1=O [Example 281] | 0.018 | 0.026 |
| C[C@H](N1CN([C@@H]2c3ccccc3SCc3cccc(F)c32)n2ccc(=O)c(O)c2C1=O)C(F)(F)F [Example 457] | 0.014 | 0.242 |
| CC(CO)N1CN(C2c3ccccc3CSc3ccccc32)n2ccc(=O)c(O)c2C1=O (stereo not shown) [Example 363] | 0.067 | 0.058 |
| O=C1c2c(O)c(=O)ccn2N(C2c3ccccc3CCc3ccccc32)CN1CCOC(F)(F)F [Example 277] | 0.071 | 0.039 |
| CC(C)N1C(=O)c2c(O)c(=O)ccn2N(C2c3ccccc3CCc3ccccc32)C1CN(C)C (stereo not shown) [Example 536] | 0.027 | 0.071 |
| CC(CN1CCCCC1)N1CN(C2c3ccccc3CSc3ccccc32)n2ccc(=O)c(O)c2C1=O (stereo not shown) [Example 487] | 0.026 | 0.091 |
| C[C@@H](N1CN([C@H]2c3ccccc3CSc3cc(Cl)ccc32)n2ccc(=O)c(O)c2C1=O)C(F)(F)F [Example 449] | 0.021 | 0.062 |
| O=C1c2c(O)c(=O)ccn2N(C2c3ccccc3CSc3ccccc32)CN1CCO (stereo not shown) [Example 360] | 0.087 | 0.042 |
| CCN1C(=O)c2c(O)c(=O)ccn2C(C(c2ccccc2)C2CCCCC2)N1CC (stereo not shown) [Example 493] | 0.101 | 0.112 |
| CN1C(=O)c2c(O)c(=O)ccn2C(C(c2ccccc2)c2ccccc2)N1C (stereo not shown) [Example 496] | 0.177 | 0.17 |
| CN1CN(C2c3ccccc3CCc3ccccc32)n2ccc(=O)c(O)c2C1=O [Example 273] | 0.084 | 0.016 |
| COCCN1CN(C2c3ccccc3CSc3ccc(F)cc32)n2ccc(=O)c(O)c2C1=O (stereo not shown) [Example 338] | 0.085 | 0.074 |
| CS(=O)(=O)CCN1CN(C2c3ccccc3CSc3ccccc32)n2ccc(=O)c(O)c2C1=O (stereo not shown) [Example 310] | 0.522 | 0.108 |
| O=C1c2c(O)c(=O)ccn2N(Cc2csc3ccc(Cl)cc23)CN1Cc1ccc(F)cc1 [Example 191] | 2.82 | 0.238 |
| CN1CC[C@@H](N2CN(C3c4ccccc4CSc4ccccc43)n3ccc(=O)c(O)c3C2=O)C1 (stereo partly shown) [Example 287] | 0.268 | 0.154 |
| O=C1c2c(O)c(=O)ccn2N(C2c3ccccc3CSc3ccccc32)CN1CC1(O)CCCCC1 (stereo not shown) [Example 372] | 0.146 | 0.164 |

| SMILES | EC50 (influenza virus) [µM] | IC50 [1] [µM] |
| --- | --- | --- |
| COCCN1CN(C2c3ccccc3CSc3ccccc32)n2ccc(=O)c(O)c2C1=O (stereo not shown) [Example 299] | 0.015 | 0.05 |
| O=C1c2c(O)c(=O)ccn2N(C(c2ccccc2)c2ccccc2)CN1C1CCOC1 (stereo not shown) [Example 224] | 0.119 | 0.276 |
| C[C@H](N1CN(C2c3ccccc3CSc3ccccc32)n2ccc(=O)c(O)c2C1=O)C(C)(C)C (stereo partly shown) [Example 314] | 0.026 | 0.149 |
| CCOC(=O)CC(C)N1CN(C(c2ccccc2)c2ccccc2)n2ccc(=O)c(O)c2C1=O (stereo not shown) [Example 230] | 0.525 | 0.282 |
| CC(C)(C)N1CN(C2c3ccccc3CSc3ccccc32)n2ccc(=O)c(O)c2C1=O (stereo not shown) [Example 308] | 0.019 | 0.072 |
| O=C1c2c(O)c(=O)ccn2N(C2c3ccccc3CSc3ccccc32)CN1CC(O)CO (stereo not shown) [Example 365] | 2.25 | 0.041 |
| CC(C)N1CN(C2c3cc(Cl)ccc3CCc3ccc(Cl)cc32)n2ccc(=O)c(O)c2C1=O [Example 280] | 0.145 | 0.068 |
| COCC1N(C(C)C)C(=O)c2c(O)c(=O)ccn2N1C1c2ccccc2CCc2ccccc21 (stereo not shown) [Example 515] | 0.019 | 0.197 |
| CC(CO)N1CN(C(c2ccccc2)c2ccccc2)n2ccc(=O)c(O)c2C1=O (stereo not shown) [Example 368] | 0.47 | 0.14 |
| O=C1c2c(O)c(=O)ccn2N(C2c3ccccc3CSc3ccccc32)CN1C(CF)CF (stereo not shown) [Example 322] | 0.028 | 0.113 |
| CNC(=O)C(C)N1CN(C(c2ccccc2)c2ccccc2)n2ccc(=O)c(O)c2C1=O (stereo not shown) [Example 233] | 2.24 | 0.228 |
| CCN1C(=O)c2c(O)c(=O)ccn2C(C(c2ccccc2)c2ccccc2)N1CC (stereo not shown) [Example 498] | 0.351 | 0.161 |
| CN1CCC(N2CN(C(c3ccccc3)c3ccccc3)n3ccc(=O)c(O)c3C2=O)CC1 [Example 225] | 0.663 | 0.283 |
| CC(C)N1CN(C2c3ccccc3CSc3ccccc32)n2cc(CF)c(=O)c(O)c2C1=O (stereo not shown) [Example 509] | 0.014 | 0.015 |
| COCC(C)N1CN(C2c3ccccc3CSc3ccccc32)n2ccc(=O)c(O)c2C1=O (stereo not shown) [Example 300] | 0.021 | 0.058 |
| CC(C)N1CC(N2CN(C3c4ccccc4CCc4ccccc43)n3ccc(=O)c(O)c3C2=O)C1 [Example 249] | 1.89 | 0.151 |
| CN1CC(C2c3ccccc3CCc3ccccc32)n2ccc(=O)c(O)c2C1=O (stereo not shown) [Example 564] | 0.136 | 0.088 |
| COCCCN1CN(C2c3ccccc3CSc3ccccc32)n2ccc(=O)c(O)c2C1=O (stereo not shown) [Example 311] | 0.026 | 0.04 |
| CC(N1CN(C(c2ccccc2)c2cccc(Cl)c2)n2ccc(=O)c(O)c2C1=O)C(F)(F)F (stereo not shown) [Example 241] | 0.063 | 0.197 |
| COCCN1CN(C2c3ccccc3CSc3cc(Cl)ccc32)n2ccc(=O)c(O)c2C1=O (stereo not shown) [Example 334] | 0.032 | 0.075 |
| CC(C)N1CN(C2c3ccccc3COc3cc(F)ccc32)n2ccc(=O)c(O)c2C1=O (stereo not shown) [Example 399] | 0.061 | 0.105 |
| N#CCN1CC(C2c3ccccc3CCc3ccccc32)n2ccc(=O)c(O)c2C1=O (stereo not shown) [Example 573] | 0.158 | 0.055 |

| SMILES | EC50 (influenza virus) [µM] | IC50 [1] [µM] |
| --- | --- | --- |
| COC[C@H](C)N1CN(C2c3ccccc3CSc3ccccc32)n2ccc(=O)c(O)c2C1=O (stereo partly shown) [Example 317] | 0.017 | 0.048 |
| Cc1nnc(CN2CN(C3c4ccccc4CSc4ccccc43)n3ccc(=O)c(O)c3C2=O)o1 (stereo not shown) [Example 295] | 0.334 | 0.052 |
| O=C1c2c(O)c(=O)ccn2N(C2c3ccccc3CSc3ccccc32)CN1Cc1nccs1 (stereo not shown) [Example 316] | 0.083 | 0.069 |
| COCCN1C[C@H](C(c2ccccc2)c2ccccc2)n2cc(C)c(=O)c(O)c2C1=O [Example 557] | 2.47 | 0.281 |
| COCCN1CN(C2c3ccccc3COc3ccccc32)n2ccc(=O)c(O)c2C1=O (stereo not shown) [Example 394] | 0.064 | 0.087 |
| CCN1C[C@H](C(c2ccccc2)c2ccccc2)n2cc(C(=O)O)c(=O)c(O)c2C1=O [Example 14] | 0.313 | 0.043 |
| CC(CCO)N1CN(C(c2ccccc2)c2ccccc2)n2ccc(=O)c(O)c2C1=O (stereo not shown) [Example 369] | 0.434 | 0.294 |
| CN1CC[C@H](N2CN(C3c4ccccc4CCc4ccccc43)n3ccc(=O)c(O)c3C2=O)C1 [Example 247] | 2.26 | 0.282 |
| Cc1cc(CN2CN(C3c4ccccc4CCc4ccccc43)n3ccc(=O)c(O)c3C2=O)no1 [Example 255] | 0.319 | 0.052 |
| CS(=O)(=O)N1CC[C@@H](N2CN(C3c4ccccc4CCc4ccccc43)n3ccc(=O)c(O)c3C2=O)C1 [Example 251] | 0.157 | 0.058 |
| COCCN1CN(C2c3ccccc3COc3c(F)cccc32)n2ccc(=O)c(O)c2C1=O (stereo not shown) [Example 400] | 0.079 | 0.067 |
| O=C1c2c(O)c(=O)ccn2N(C2c3ccccc3CSc3ccccc32)CN1[C@H](CO)c1ccccc1 (stereo partly shown) [Example 376] | 0.092 | 0.063 |
| CSCCC1N(C(C)C)C(=O)c2c(O)c(=O)ccn2N1C1c2ccccc2CCc2ccccc21 (stereo not shown) [Example 516] | 0.017 | 0.039 |
| O=C1c2c(O)c(=O)ccn2N(C2c3ccccc3CSc3ccccc32)CN1Cc1ccccn1 (stereo not shown) [Example 307] | 0.095 | 0.052 |
| COCCC1N(CCO)C(=O)c2c(O)c(=O)ccn2N1C1c2ccccc2CCc2ccccc21 (stereo not shown) [Example 552] | 0.085 | 0.23 |
| O=C(O)c1cn2c(c(O)c1=O)C(=O)N(CC(F)(F)F)C[C@@H]2C(c1ccccc1)c1ccccc1 [Example 185] | 1.92 | 0.132 |
| COCCN1C(=O)c2c(O)c(=O)ccn2C(C(c2ccccc2)c2ccccc2)N1C (stereo not shown) [Example 495] | 0.31 | 0.277 |
| Cc1noc(CN2CN(C3c4ccccc4CSc4ccccc43)n3ccc(=O)c(O)c3C2=O)n1 (stereo not shown) [Example 315] | 0.115 | 0.057 |
| COCC(COC)N1CN(C2c3ccccc3CCc3ccccc32)n2ccc(=O)c(O)c2C1=O [Example 272] | – | 0.082 |
| COCCN1C[C@H](C(c2ccccc2)c2ccccc2)n2cc(N)c(=O)c(O)c2C1=O [Example 56] | – | 0.358 |
| COCCN1CN(C2c3ccccc3CSc3c(F)cccc32)n2ccc(=O)c(O)c2C1=O (stereo not shown) [Example 336] | – | 0.051 |
